“And” between values parts separate entries of the source, which are not always exact repeats. Identical values can stand only once.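 Method: 48-hour compound exposure of cells in 96-well plates, five concentrations, linear interpolation of endpoints. GI50 = concentration required for 50% inhibition of growth. TGI marks complete inhibition of growth.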

From PubChem BioAssay (NCI) come the findings set out here.

Common to all, as to assay: growth of human tumour cells (NCI), 48 h
The test system of test [1] is A549 NSCLC.
Test [2] deals with ACHN renal.
The subject of test [3] is CCRF-CEM leukemia.
In test [4] the test system is HOP-92 NSCLC.
The subject of test [5] is NCI-H226 lung.
The subject of test [6] is SF-268 CNS.
Test [7] relates to SF-295 CNS.
The subject of test [8] is SW-620 colon.
Test [9] relates to UACC-62 melanoma.
In test [10] the test system is CAKI-1 renal.

In the case of `Nc1ccc(/C=C/C(=O)NCc2cc3cc(-c4ccc(C(=O)N5CCC(F)(F)CC5)cc4)cc(-c4ccc(F)cc4)c3o2)cn1`, the GI50 in test [1] was greater than 100 µM; in test [2], 83.9 µM; in test [3], 0.083 µM; in [4], 28.3 µM; in [5], greater than 100 µM; in test [6], greater than 100 µM. In addition, the GI50 in test [8] was 0.0571 µM; in [9] it was greater than 100 µM. In addition, the TGI in test [1], in test [2], in [3], in [4], in test [5] and in test [6] was greater than 100 µM throughout. The TGI in test [7], in [8] and in [9] was greater than 100 µM throughout.
Take `CSc1nnc(COc2ccc(Cl)cc2)o1`: the TGI in test [1], in test [2], in [10], in [6], in test [7] and in [8] was greater than 100 µM throughout. In test [9], this molecule had a TGI greater than 100 µM.
In the case of `CCCCn1c(-c2ccc(C(=O)O/N=C(\N)c3ccc4c(c3)OCO4)cc2)nc(-c2ccccc2)c1-c1ccccc1`, the GI50 was 1.92 µM in test [1]; 1.35 µM in test [2]; 1.35 µM in test [10]; 1.05 µM in test [3]; 3.93 µM in [5]; 1.97 µM in test [6]. The GI50 in [7] is 2.03 µM; in test [8] it was 3.81 µM; in [9], 2.72 µM. Moreover, the TGI in [1] was 5.22 µM; in [2] it was 2.81 µM; in test [10], 3.37 µM; in test [3], 3.4 µM; in test [5] it was greater than 100 µM; in test [6], 4.37 µM. The TGI in [7] is 4.38 µM; in test [8], greater than 100 µM; in test [9] it was 8.93 µM.
As to `c1ccc2[nH]c(-c3ccc(Nc4nc(N5CCCCC5)nc(N5CCOCC5)n4)cc3)nc2c1`, the GI50 in test [1] is 3.27 µM; in test [2], 3.14 µM; in test [3], 3.25 µM; in test [4] it was 1.99 µM; in [5] it was 3.2 µM; in test [6], 3.21 µM. Moreover, the GI50 is 1.85 µM in test [7] and 2.34 µM in test [8]. Besides, the TGI in test [1] was 13.2 µM; in [2], greater than 100 µM; in test [3], greater than 100 µM; in [4], 4.32 µM; in [5], 17.7 µM; in [6], 20.1 µM. The figures for the TGI in test [7] and in [8] were 4.6 µM and 5.87 µM, respectively.
On to `Cc1c(C(=O)O)oc2ccc([N+](=O)[O-])cc12`, for which the TGI in [1], in test [2], in [10], in [3], in test [4] and in test [6] was greater than 100 µM throughout. The TGI in [7], in test [8] and in [9] was greater than 100 µM each time.
Take `CC(C)(C)c1cc(C=C(C#N)C#N)cc(C(C)(C)C)c1O`: the TGI in test [1] is 24.3 µM and 71.4 µM; in test [2], 20.2 µM; in [4], 0.768 µM and 0.139 µM; in test [5], 1.51 µM and 14.8 µM; in test [6], greater than 241 µM; in test [7] it was 1.23 µM and 3.4 µM. Moreover, the TGI in test [8] is 30.9 µM and 45.4 µM; in test [9], 8.29 µM and 19.3 µM. The GI50 is 0.609 µM in [3]; 0.212 µM in [4]; 0.371 µM in [5]; 0.475 µM in test [6]; 0.284 µM in test [7]; 0.462 µM in test [8].
For the molecule `C[C@H]1CCCC(O)C(O)[C@@H]2C[C@H](O[Si](C)(C)C(C)(C)C)C[C@H]2[C@H](O[Si](C)(C)C(C)(C)C)C(O)C(O)C(=O)O1` (some centres undefined), the GI50 in [1] is 31.5 µM; in test [2], 14.4 µM; in test [10], 23.5 µM; in [3], 28 µM; in test [6], 20 µM; in [7], 32 µM. The GI50 in test [8] is 94.7 µM; in test [9] it was 18.5 µM. In addition, the TGI was greater than 100 µM in test [1]; 44.7 µM in [2]; 89.7 µM in [10]; greater than 100 µM in test [3]; greater than 100 µM in [6]; greater than 100 µM in test [7]. Further, the TGI is greater than 100 µM in [8] and 48.8 µM in test [9].
Turning to `C=C(C)C1C/C=C(/C)CCCC2(CCC3=C(CC(C(=C)C)C/C=C(/C)CCC3)O2)C(=O)C1` (centres undefined), the TGI in [1], in test [2], in test [3], in test [4], in [5] and in [6] was greater than 100 µM in each case. For the same molecule, the TGI in test [7], in test [8] and in [9] was greater than 100 µM in each case.
Regarding `COc1ccc(/C(=N\NC(=S)NN)C(c2ccc(OC)cc2)C2C(=O)Oc3ccccc32)cc1` (centres undefined), the GI50 in [1], in test [2], in test [4], in test [5], in test [6] and in [7] was greater than 100 µM each time. The GI50 in test [8] and in [9] was greater than 100 µM each time. The TGI in test [1], in test [2], in test [3], in [4], in test [5] and in [6] was greater than 100 µM in each case. In addition, the TGI in [7], in [8] and in test [9] was greater than 100 µM throughout.
Turning to `COc1ccc2[nH]c3c(c2c1)[C@H](C)C[C@@H]1C(=O)N(c2ccccc2)C(=O)[C@H]31`, the TGI is 62.4 µM in test [1]; greater than 100 µM in test [2]; greater than 100 µM in test [10]; greater than 100 µM in test [3]; 42.6 µM in [4]; 63.1 µM in test [6]. Besides, the TGI was 70.9 µM in test [7], greater than 100 µM in test [8] and greater than 100 µM in [9].
Turning to `CCCCN(CC)CC(C(C)=O)c1c(O)c2ccccc2oc1=O` (centres undefined), the TGI in test [1], in test [2], in [10], in test [3], in test [5] and in test [6] was greater than 100 µM in each case. The TGI in test [7], in test [8] and in [9] was greater than 100 µM each time.
With `N#Cc1ccc(NC(=O)C(CC(=O)OCc2ccccc2)NC(=O)OCc2ccccc2)cc1` (centres undefined), the GI50 in test [1], in test [2], in [10], in [3], in [4] and in test [7] was greater than 100 µM throughout. Further, the GI50 in test [8] and in test [9] was greater than 100 µM in each case. Further, the TGI in [1], in test [2], in [10], in [3], in test [4] and in test [7] was greater than 100 µM throughout. Besides, the TGI in test [8] and in [9] was greater than 100 µM in each case.
Turning to `O=C(N/N=C/c1cccc(F)c1)c1ccncc1`, the TGI in test [1] is greater than 100 µM; in test [2], greater than 100 µM; in test [3], greater than 100 µM; in test [4] it was greater than 100 µM; in [5], 3.78 µM; in test [6] it was greater than 100 µM. The TGI in [7] and in test [8] was greater than 100 µM in each case.
For `CCOC(=O)C(NC(=O)c1nc[nH]c1[N+](=O)[O-])C(C)C` (centres undefined), the TGI in test [1], in [2], in test [10], in [3], in [5] and in [6] was greater than 100 µM throughout. The TGI in [7], in test [8] and in [9] was greater than 100 µM each time.
As to `Cn1c2c(c3ccccc31)CCN(CCN1CCN(c3cccc(Cl)c3)CC1)C2=O`, the TGI in test [1] is greater than 100 µM; in test [2], greater than 100 µM; in test [3], greater than 100 µM; in test [4], 77.1 µM; in test [6] it was greater than 100 µM; in [8] it was greater than 100 µM. In [9], this molecule yielded a TGI greater than 100 µM.
For the molecule `Cc1ccccc1C(=O)N1CCN(C(=O)c2ccccc2C)CC1`, the TGI in test [1], in [2], in test [10], in test [3], in test [4] and in [6] was greater than 100 µM each time. Moreover, the TGI in test [7], in test [8] and in test [9] was greater than 100 µM each time.
Turning to `C/C(=N/NC(=O)C[N+](C)(C)C)C(CN(C)C)C(=O)Nc1ccccc1` (centres undefined), the TGI in test [1], in test [2], in [10], in [3], in [5] and in test [6] was greater than 100 µM each time. The TGI in test [7], in test [8] and in test [9] was greater than 100 µM throughout.
Turning to `CN(C)C(=S)/N=c1\ssc(=S)n1Cc1ccncc1`, the TGI in [1] was greater than 100 µM; in [2] it was 93.1 µM; in [10], 75.6 µM; in [3] it was 57 µM; in [5] it was greater than 100 µM; in test [6], greater than 100 µM. In addition, the TGI stood at 83.8 µM in test [7], 48.8 µM in test [8] and 25.5 µM in test [9].
For the molecule `CCOC(=O)C1SC(=Nc2ccc(Cl)cc2)N=C1C` (centres undefined), the TGI was 38.1 µM in test [1]; 49.7 µM in test [2]; 29.6 µM in [4]; 41.9 µM in test [5]; 34 µM in test [6]; 34.9 µM in test [7]. The molecule also yielded a TGI in [8] of 35.2 µM.
Consider `CSC(=NCCc1c[nH]c2ccccc12)NC#N`, for which the TGI in test [1], in test [2], in test [3], in test [5], in test [6] and in test [7] was greater than 100 µM in each case. In addition, the TGI in test [8] and in [9] was greater than 100 µM in each case.
Take `C(=N\Nc1nnn(Cc2ccccc2)n1)/c1ccccc1`: the GI50 in test [1] is 4.7 µM; in test [2], 16.1 µM; in [10], 2.57 µM; in test [3] it was 1.71 µM; in test [5] it was 10.4 µM; in test [6] it was 8.28 µM. Besides, the GI50 is 3.44 µM in [7], 1.73 µM in test [8] and 2.2 µM in test [9]. In addition, the TGI in [1] is greater than 100 µM; in [2], greater than 100 µM; in test [10], greater than 100 µM; in [3], greater than 47.5 µM; in test [5], greater than 100 µM; in [6], greater than 89.3 µM. Further, the TGI was 56.3 µM in test [7], greater than 100 µM in [8] and greater than 100 µM in [9].
Take `CSC1=Nc2ccccc2N=C(c2ccc(Cl)cc2)C1`: the TGI in test [1], in test [2], in test [10], in test [3], in test [5] and in [6] was greater than 100 µM throughout. Besides, the TGI in test [7], in test [8] and in [9] was greater than 100 µM in each case.
In the case of `C=C1C(O)CC[C@]2(C)C1C1OC(C)(C)O[C@]13CC(=O)C(C)=C([C@H]1OC(C)(C)OC12)C3(C)C` (some centres undefined), the TGI in [1], in test [2], in test [10], in [3], in [5] and in test [6] was greater than 100 µM each time. Also, the TGI in [7], in test [8] and in [9] was greater than 100 µM in each case.
